# In patent US9475779B2, “Substituted bicyclic dihydropyrimidinones and their use as inhibitors of neutrophil elastase activity” (priority 2014, dated 2016):
# Assays:
# [1] = test system: human hepatocytes; assay: Metabolic stability with human hepatocytes; format: in vitro ADME; details: well stirred model
# Protocol: Assay for the Determination of Metabolic Stability with Human Hepatocytes
# The metabolic degradation of the test compound is assayed in a human hepatocyte suspension. Human hepatocytes (typically cryopreserved) are incubated in an appropriate buffer system (e.g. Dulbecco's modified eagle medium plus […]/500 mL, 2.5 mg insulin/500 mL and 3.75 mg/500 mL hydrocortison) containing 5% species serum. Following a (typically) 30 min preincubation in an incubator (37° C., 10% CO2), 5 μl of test compound solution (80 μM; from 2 mM stock solution in DMSO diluted 1:25 with medium) are added into 395 μl hepatocyte suspension (cell density in the range 0.25-5*10^6 cells/mL, typically 1*10^6 cells/mL; final concentration of test compound 1 μM, final DMSO concentration 0.05%). The cells are incubated for six hours (incubator, orbital shaker) and samples (25 μl) are taken at 0, 0.5, 1, 2, 4 and 6 hours. Samples are transferred into acetonitrile and pelleted by centrifugation (5 min). […] The decline of parent compound is analyzed by LC-MS/MS.
# The intrinsic clearance CL_[…] is calculated as follows: CL_[…]=Dose/AUC=(C0/CD)/(AUD+clast/k)*1′000/60 (C0: initial concentration in the incubation […], CD: cell density of vital cells [10^6 cells/mL], AUD: area under the data [μM*h], clast: concentration of last data point [μM], k: slope of the regression line for parent decline [h^−1]) […]
# [2] = test system: Caco-2 cells; assay: in vitro; format: in vitro ADME; details: pH 7.2
# [3] = physchem; format: physicochemical; details: McIlvaine buffer pH 6.8 containing 2.5% DMSO, pH 6.8, aqueous buffer, kinetic from dmso stock, McIlvaine buffer pH 6.8, 2.5% DMSO, 24 h
# [4] = biological target: hERG potassium channel (Homo sapiens (Human), UniProt Q12809); assay: in vitro
# [5] = Metabolic stability with human liver microsomes; format: in vitro ADME; details: human, pooled human liver microsomes, pH 7.6, pooled human liver microsomes, 1 μM test compound, 37° C.; read-out: t1/2 INVITRO
# [6] = biological target: cytochrome P450 2C9 (Homo sapiens (Human), UniProt P11712); assay: biochemical
# cytochrome P450 2C9, sequence (P11712 whole entry, looked up): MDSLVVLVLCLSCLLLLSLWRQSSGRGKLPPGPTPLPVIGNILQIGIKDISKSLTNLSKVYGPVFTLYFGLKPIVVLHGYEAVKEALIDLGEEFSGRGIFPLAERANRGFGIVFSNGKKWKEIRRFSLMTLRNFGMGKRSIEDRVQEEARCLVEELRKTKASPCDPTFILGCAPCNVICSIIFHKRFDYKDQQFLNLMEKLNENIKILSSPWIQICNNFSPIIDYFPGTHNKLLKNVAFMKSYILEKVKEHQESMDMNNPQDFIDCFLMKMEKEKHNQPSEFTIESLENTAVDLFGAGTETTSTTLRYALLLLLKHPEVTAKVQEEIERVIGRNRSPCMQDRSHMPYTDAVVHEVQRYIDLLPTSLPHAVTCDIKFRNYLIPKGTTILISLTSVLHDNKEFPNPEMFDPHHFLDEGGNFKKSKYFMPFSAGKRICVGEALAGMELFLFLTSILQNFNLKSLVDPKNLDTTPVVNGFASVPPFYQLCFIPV
# [7] = biological target: T1, neutrophil elastase (Homo sapiens (Human), UniProt P08246); assay: biochemical
# T1 sequence (P08246 whole entry, looked up): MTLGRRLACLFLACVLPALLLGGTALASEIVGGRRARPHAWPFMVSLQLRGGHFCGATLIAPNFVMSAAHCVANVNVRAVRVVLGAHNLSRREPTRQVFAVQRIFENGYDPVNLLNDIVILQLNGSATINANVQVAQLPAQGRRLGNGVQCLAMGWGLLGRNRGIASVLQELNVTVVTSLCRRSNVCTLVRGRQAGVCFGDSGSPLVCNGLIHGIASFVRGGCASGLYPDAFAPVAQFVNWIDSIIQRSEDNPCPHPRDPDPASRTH
# [8] = biological target: cytochrome P450 2C8 (Homo sapiens (Human), UniProt P10632); assay: biochemical
# cytochrome P450 2C8, sequence (P10632 whole entry, looked up): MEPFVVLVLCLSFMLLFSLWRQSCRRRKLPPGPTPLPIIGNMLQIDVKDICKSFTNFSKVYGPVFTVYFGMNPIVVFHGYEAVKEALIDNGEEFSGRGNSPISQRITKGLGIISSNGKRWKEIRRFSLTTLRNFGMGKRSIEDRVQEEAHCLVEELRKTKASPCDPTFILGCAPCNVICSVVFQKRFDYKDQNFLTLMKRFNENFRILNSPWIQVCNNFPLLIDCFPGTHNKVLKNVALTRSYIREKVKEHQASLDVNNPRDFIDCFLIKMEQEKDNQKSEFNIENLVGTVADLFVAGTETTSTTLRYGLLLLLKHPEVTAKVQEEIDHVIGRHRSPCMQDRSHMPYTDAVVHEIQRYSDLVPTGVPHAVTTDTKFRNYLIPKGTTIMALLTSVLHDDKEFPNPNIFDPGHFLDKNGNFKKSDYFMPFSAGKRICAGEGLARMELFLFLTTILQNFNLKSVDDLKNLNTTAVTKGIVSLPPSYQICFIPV
# [9] = biological target: T1, neutrophil elastase; assay: biochemical; format: biochemical; details: read-out: IC50
# Protocol: Human Neutrophil Elastase Assay
# All other materials were of the highest grade commercially available.
# The following buffers were used: Compound buffer: 100 mM Tris, 500 mM NaCl, adjusted to pH 7.5; Assay buffer: 100 mM Tris, 500 mM NaCl, adjusted to pH 7.5, containing 0.01% BSA.
# Assay conditions: Test compounds were prediluted in DMSO and subsequently in compound buffer (5% DMSO final). […] After inactivation of the enzyme, fluorescence intensities were measured at 380 nm excitation and 460 nm emission wavelengths.
# Each plate contains wells with a high value control (DMSO+enzyme+substrate) and wells with a low value control (DMSO+inactivated enzyme+substrate). IC50 values were estimated using a sigmoidal concentration response curve with variable slope. Means of low values were taken as 0%, means of high values as 100%.
# [10] = biological target: cytochrome P450 2C19 (Homo sapiens (Human), UniProt P33261); assay: biochemical
# cytochrome P450 2C19, sequence (P33261 whole entry, looked up): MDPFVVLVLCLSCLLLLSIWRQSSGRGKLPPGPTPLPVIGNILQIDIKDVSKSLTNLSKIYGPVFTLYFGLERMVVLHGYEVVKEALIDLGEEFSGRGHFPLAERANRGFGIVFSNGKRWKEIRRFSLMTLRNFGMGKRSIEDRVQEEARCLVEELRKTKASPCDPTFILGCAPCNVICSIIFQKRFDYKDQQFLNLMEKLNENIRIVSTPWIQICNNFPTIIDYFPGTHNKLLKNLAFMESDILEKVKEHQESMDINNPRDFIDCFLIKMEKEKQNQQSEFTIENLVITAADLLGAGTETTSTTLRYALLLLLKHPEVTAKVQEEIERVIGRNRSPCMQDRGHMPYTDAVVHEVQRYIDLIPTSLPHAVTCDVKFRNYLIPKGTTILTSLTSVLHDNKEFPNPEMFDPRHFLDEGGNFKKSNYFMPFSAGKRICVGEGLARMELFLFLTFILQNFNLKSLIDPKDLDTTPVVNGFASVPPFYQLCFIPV
smiles,measurement,setting,value
"CN1C(=O)N(c2cccc(C(F)(F)F)c2)C2=C(C(=O)CC2)[C@H]1c1ccc(C#N)cc1[S+](C)[O-] (single isomer, unassigned) [Example C.2A, 3-Methanesulfinyl-4-[3-methyl-2,5-dioxo-1-(3-trifluoromethyl-phenyl)-2,3,4,5,6,7-hexahydro-1H-cyclopentapyrimidin-4-yl]-benzonitrile]",predicted hepatic in vivo blood clearance,[1],3 % human hepatic blood flow
same,PEAB,[2],13 ×10⁻⁶ cm/s
same,PEBA,[2],73 ×10⁻⁶ cm/s
same,solubility at 24 h,[3],58 µg/mL
same,inhibition at 10 µM,[4],7%
same,half-life at 1 μM,[5],> 2.17 h
same,IC50,[6],> 50 µM
same,EC50,[7],0.002 µM
same,IC50,[8],> 50 µM
same,IC50,[9],< 0.001 µM
same,IC50,[10],> 50 µM
